System: Human patients with short bowel syndrome
Assay: Example 1: liver diagnostic biomarkers (total bilirubin, ALT, AST, ALP) in short bowel syndrome patients, every four weeks for 24 weeks
Assay type: in vivo
Set-up: AST (SGOT) Change from Baseline, Median / ALT (SGPT), Median / TOTAL BILIRUBIN, Median / TOTAL BILIRUBIN Change from Baseline, Median / ALT (SGPT) Change from Baseline, Median / AST (SGOT), Median: unit not given here
Settings: 0.05 mg/kg/day
Procedure: Human patients with short bowel syndrome were divided into three groups: a control group (16 total individuals) to receive placebo, an experimental group (35 total individuals) to receive teduglutide at 0.05 mg/kg/day throughout the study, and an experimental group (32 total individuals) to receive teduglutide at 0.1 mg/kg/day throughout the study. Patients were treated by subcutaneous injection of placebo or the appropriate dose of teduglutide. As individuals with short bowel syndrome are likely to experience associated liver and kidney disease, known biomarkers of liver and kidney function were monitored every four weeks, for 24 weeks. The liver biomarkers tested included total bilirubin, ALT and AST and ALP. The kidney biomarkers tested included urea nitrogen, creatinine and GFR. Before administration of placebo or teduglutide, diagnostic biomarker levels were tested to establish a baseline for each individual.
To visualize the effect of GLP-2 on the levels of the diagnostic biomarkers, the average change from baseline was calculated for the placebo and teduglutide treated groups for each visit after a baseline was established. The average change from baseline of each group is depicted in FIGS. […]. The numerical figures for each diaanostic biomarker at each time point are depicted in Table 1.
The efficacy of teduglutide in treating liver dysfunction was further tested by sorting the data into two groups: individuals with abnormal baseline values of liver diagnostic biomarkers; and individuals with normal baseline values of liver diagnostic biomarkers. The mean diagnostic biomarker change from baseline for these two groups is shown for ALT (FIGS. 5 and 6) and AST (FIGS. 7 and 8). […] These changes were significant when compared to baseline levels for the group, and when compared to placebo (see FIGS. 5 and 7).
The raw data for this sorting is reproduced in Table 2 below.

## CC[C@H](C)[C@H](NC(=O)[C@H](Cc1ccccc1)NC(=O)[C@H](CC(=O)O)NC(=O)[C@H](CCCNC(=N)N)NC(=O)[C@H](C)NC(=O)[C@H](C)NC(=O)[C@H](CC(C)C)NC(=O)[C@H](CC(N)=O)NC(=O)[C@H](CC(=O)O)NC(=O)[C@H](CC(C)C)NC(=O)[C@@H](NC(=O)[C@@H](NC(=O)[C@H](CC(N)=O)NC(=O)[C@H](CCSC)NC(=O)[C@H](CCC(=O)O)NC(=O)[C@H](CC(=O)O)NC(=O)[C@H](CO)NC(=O)[C@H](Cc1ccccc1)NC(=O)[C@H](CO)NC(=O)CNC(=O)[C@H](CC(=O)O)NC(=O)CNC(=O)[C@@H](N)Cc1c[nH]cn1)[C@@H](C)O)[C@@H](C)CC)C(=O)N[C@@H](CC(N)=O)C(=O)N[C@@H](Cc1c[nH]c2ccccc12)C(=O)N[C@@H](CC(C)C)C(=O)N[C@H](C(=O)N[C@@H](CCC(N)=O)C(=O)N[C@H](C(=O)N[C@@H](CCCCN)C(=O)N[C@H](C(=O)N[C@H](C(=O)N[C@@H](CC(=O)O)C(=O)O)[C@@H](C)O)[C@@H](C)CC)[C@@H](C)O)[C@@H](C)CC [teduglutide]
DW4
  ALKALINE PHOSPHATASE Change from Baseline, Mean (SD): −24.8 (45.66)
  ALKALINE PHOSPHATASE Change from Baseline, Median: −16.0
  ALKALINE PHOSPHATASE, Mean (SD): 159.5 (90.91)
  ALKALINE PHOSPHATASE, Median: 139.0
  ALT (SGPT) Change from Baseline, Mean (SD): −14.9 (26.39)
  ALT (SGPT) Change from Baseline, Median: −5.0
  ALT (SGPT), Mean (SD): 30.1 (14.08)
  ALT (SGPT), Median: 27.0
  AST (SGOT) Change from Baseline, Mean (SD): −5.5 (24.09)
  AST (SGOT) Change from Baseline, Median: −4.0
  AST (SGOT), Mean (SD): 29.1 (19.23)
  AST (SGOT), Median: 27.0
  TOTAL BILIRUBIN Change from Baseline, Mean (SD): −0.8 (4.31)
  TOTAL BILIRUBIN Change from Baseline, Median: 0.0
  TOTAL BILIRUBIN, Mean (SD): 10.4 (9.48)
  TOTAL BILIRUBIN, Median: 7.0
DW8
  ALKALINE PHOSPHATASE Change from Baseline, Mean (SD): −24.0 (64.47)
  ALKALINE PHOSPHATASE Change from Baseline, Median: −20.0
  ALKALINE PHOSPHATASE, Mean (SD): 152.2 (84.05)
  ALKALINE PHOSPHATASE, Median: 134.0
  ALT (SGPT) Change from Baseline, Mean (SD): −9.8 (30.38)
  ALT (SGPT) Change from Baseline, Median: −4.0
  ALT (SGPT), Mean (SD): 37.3 (23.71)
  ALT (SGPT), Median: 31.5
  AST (SGOT) Change from Baseline, Mean (SD): −3.2 (19.88)
  AST (SGOT) Change from Baseline, Median: −3.0
  AST (SGOT), Mean (SD): 33.5 (18.56)
  AST (SGOT), Median: 28.0
  TOTAL BILIRUBIN Change from Baseline, Mean (SD): −0.4 (4.78)
  TOTAL BILIRUBIN Change from Baseline, Median: −1.0
  TOTAL BILIRUBIN, Mean (SD): 10.8 (8.86)
  TOTAL BILIRUBIN, Median: 8.0
DW12
  ALKALINE PHOSPHATASE Change from Baseline, Mean (SD): −39.4 (48.95)
  ALKALINE PHOSPHATASE Change from Baseline, Median: −24.0
  ALKALINE PHOSPHATASE, Mean (SD): 143.5 (73.92)
  ALKALINE PHOSPHATASE, Median: 130.5
  ALT (SGPT) Change from Baseline, Mean (SD): −12.7 (29.55)
  ALT (SGPT) Change from Baseline, Median: −10.0
  ALT (SGPT), Mean (SD): 34.6 (24.30)
  ALT (SGPT), Median: 26.0
  AST (SGOT) Change from Baseline, Mean (SD): −5.9 (19.28)
  AST (SGOT) Change from Baseline, Median: −8.0
  AST (SGOT), Mean (SD): 29.2 (15.48)
  AST (SGOT), Median: 26.5
  TOTAL BILIRUBIN Change from Baseline, Mean (SD): −1.8 (5.75)
  TOTAL BILIRUBIN Change from Baseline, Median: −1.0
  TOTAL BILIRUBIN, Mean (SD): 9.4 (6.65)
  TOTAL BILIRUBIN, Median: 7.0
DW16
  ALKALINE PHOSPHATASE Change from Baseline, Mean (SD): −12.3 (69.90)
  ALKALINE PHOSPHATASE Change from Baseline, Median: −20.5
  ALKALINE PHOSPHATASE, Mean (SD): 168.2 (128.08)
  ALKALINE PHOSPHATASE, Median: 134.0
  ALT (SGPT) Change from Baseline, Mean (SD): −3.2 (24.76)
  ALT (SGPT) Change from Baseline, Median: −2.5
  ALT (SGPT), Mean (SD): 39.5 (39.44)
  ALT (SGPT), Median: 28.0
  AST (SGOT) Change from Baseline, Mean (SD): −4.3 (11.75)
  AST (SGOT) Change from Baseline, Median: −1.5
  AST (SGOT), Mean (SD): 29.3 (12.05)
  AST (SGOT), Median: 25.0
  TOTAL BILIRUBIN Change from Baseline, Mean (SD): −1.3 (9.00)
  TOTAL BILIRUBIN Change from Baseline, Median: −1.0
  TOTAL BILIRUBIN, Mean (SD): 10.0 (8.90)
  TOTAL BILIRUBIN, Median: 7.0
DW20
  ALKALINE PHOSPHATASE Change from Baseline, Mean (SD): −36.9 (49.89)
  ALKALINE PHOSPHATASE Change from Baseline, Median: −25.0
  ALKALINE PHOSPHATASE, Mean (SD): 144.2 (76.09)
  ALKALINE PHOSPHATASE, Median: 136.5
  ALT (SGPT) Change from Baseline, Mean (SD): −16.0 (28.73)
  ALT (SGPT) Change from Baseline, Median: −5.0
  ALT (SGPT), Mean (SD): 29.7 (13.35)
  ALT (SGPT), Median: 26.0
  AST (SGOT) Change from Baseline, Mean (SD): −8.0 (14.96)
  AST (SGOT) Change from Baseline, Median: −4.0
  AST (SGOT), Mean (SD): 26.1 (7.02)
  AST (SGOT), Median: 25.0
  TOTAL BILIRUBIN Change from Baseline, Mean (SD): −0.8 (5.69)
  TOTAL BILIRUBIN Change from Baseline, Median: 0.0
  TOTAL BILIRUBIN, Mean (SD): 9.7 (6.78)
  TOTAL BILIRUBIN, Median: 9.0
DW24
  ALKALINE PHOSPHATASE Change from Baseline, Mean (SD): −11.6 (166.86)
  ALKALINE PHOSPHATASE Change from Baseline, Median: −29.0
  ALKALINE PHOSPHATASE, Mean (SD): 169.6 (204.22)
  ALKALINE PHOSPHATASE, Median: 131.0
  ALT (SGPT) Change from Baseline, Mean (SD): −13.5 (24.40)
